# In patent US8435553B2, “Elastin stabilization of connective tissue” (Clemson University Research Foundation (CURF), priority 2005, dated 2013):
# Several values for one entry are separate records, joined by “and”; a condition that tells them apart may be missing. Identical values can stand only once. Like-named read-outs stand apart in the source and are kept apart here.
# Columns and labels:
# Rat skin fibroblasts [1] = system: Rat skin fibroblasts
# Procedure: (§1) Fresh porcine aorta was treated with Glut, Glut/TA, or Glut/PGG, as described above. After thorough rinsing (3x, 1 hr. each, 100 mL ddH2O), samples were orbitally shaken at 120 rpm 37° C. for 14 days in a PBS/azide buffer, pH7.4, for extraction of soluble, cytotoxic compounds (50 mL per 6 tissues samples, each 4 mm×4 mm).
# (§2) Rat skin fibroblasts were seeded onto 24-well plates (50,000 cells/well) in 1 mL DMEM supplemented with 10% FBS and 1% penicillin-streptomycin. Cells were maintained in a humidified incubator at 37° C. with 10% CO2. After 24 hours, the media was removed and replaced with one of the PBS/azide solutions diluted 10-fold in fresh media. As control, a sample was held in buffer alone (negative control) and also in a 70% ethanol solution (positive control). Effectively, 100 μL of the ‘test solution’ was added to 900 μL of media for each well (except in the case of ethanol, in which no media was added). The cells were incubated with these solutions for 2 hours and then rinsed with 1 mL PBS. Viability of the cells was then assessed using a qualitative LIVE/DEAD® staining fluorescent stain. In addition, a quantitative measurement, MTS, was used to measure the activity of cell enzymes. Specifically, the reagent was diluted 5-fold in media, then applied to the cells for 90 minutes. A portion of the resulting solutions ([…]) was transferred to a 96-well plate and read at an absorbance of 490 nm. Samples were blanked to a well containing media and MTS reagent with no cells.
# Micrographs of cells introduced to LIVE/DEAD® were taken 45 minutes after exposure. Results are shown in FIGS. 6A-6E, in which living cells appear as light spots on the dark background, and dead cells appear as darker gray spots.
# Rat skin fibroblasts [2] = system: Rat skin fibroblasts; remark: listed apart in the source
# Procedure: as §1, §2
# porcine aorta [3] = experiment: Recoil of aortic rings by opening angle measurement; settings: aortic rings cut radially, relaxed 15 minutes; n = 5
# Procedure: Fresh porcine aorta was cut across the diameter into continuous rings approximately 1 cm in height as illustrated in FIG. 5A and treated with glutaraldehyde (Glut treatment). For this treatment, aortic ring samples were first fixed with 0.6% glutaraldehyde in 50 mM Hepes buffered saline, pH 7.4, overnight at room temperatures, followed by 0.2% glutaraldehyde in the same buffer for 7 days at room temperatures.
# A portion of the Glut-treated rings were then treated with 0.3% pentagalloylglucose (PGG). PGG was first prepared from TA as outlined by Hagerman, et al. (Hagerman , Zhao Y., and Johanson J., “Methods for determination of condensed and hydrolyzable tannins,” Shahadi, F., Ed., Antinutrients and Phytochemicals in Foods, Wash., D.C., American Chemical Society, p. 209-222 (1997)). Specifically, TA was methanolyzed using a solution of methanol and acetate buffer. After methanolysis, the methanol was removed by rotary evaporation and replaced with ddH2O. A series of separate extractions involving diethyl ether and ethyl acetate, along with rinses of dilute methanol and ddH2O was performed to purify the PGG. The resulting precipitate was centrifuged and lyophilized to form a solid. […]
# Samples were then tested for ability to recoil using opening angle measurements. […] Using these lines, the opening angles of the aortic rings were calculated. […]
# porcine aorta [4] = experiment: Tensile stress/strain test, elastic modulus of aorta; settings: slope of stress-strain curve between 0 and 5% strain; n = 4
# Procedure: To evaluate mechanical properties, aorta was cut to form dumbbell shapes approximately 40 mm in length, approximately 10 mm wide at each end, and approximately 5 mm wide at the center, with the long axis of the dumbbell shape being parallel to the circumferential direction of the aorta. Tensile properties of the samples were tested using standard stress/strain analysis on a Synergie 100 testing apparatus (MTS Systems Corporation, Eden Prairie, Minn.) operated at a constant uniaxial velocity of 0.2 mm/sec using a 10-Newton load cell to determine elastic modulus of the samples. Elastic modulus was calculated as the slope of the stress-strain curve between 0 and 5% strain.
# [5] = Long-term binding of tannins to aortic tissue (extraction from explanted aorta); format: in vivo, Sprague-Dawley rats
# Procedure: (§3) Adult male Sprague-Dawley rats were placed under general anesthesia (2% to 3% isoflurane), allowing for a midline incision along the abdomen in order to expose the infrarenal abdominal aorta. Once exposed, the abdominal aorta was treated with 0.03% PGG solution in saline for 15 minutes using a strip (1.5 cm×0.5 cm) of presoaked 8-ply sterile cotton gauze. The area was then briefly rinsed with saline, allowing induction of chemical injury (0.5 M CaCl2, delivered with gauze for 15 minutes). As controls, rat aortas were treated with physiological saline for 15 minutes, rinsed, and then subjected to calcium chloride. After treating with CaCl2, the gauze was removed and the abdominal cavity was closed with subcutaneous suture, followed by surgical staples. The rats were anesthetized after 28 days, at which point the abdominal aorta was again exposed. Digital photographs (before PGG application at day 0, as well as after 28 days) were used to measure percent increases in diameter after the 28 day period for each rat. Aortic tissue was collected for analysis. Vessels were also analyzed to determine the long-term binding of the tannins with the tissue. Tannins were extracted from explanted aorta immediately after treatment (labeled PGG in situ on FIG. 11) and measured levels were compared to those obtained from aorta explanted 28 days following PGG treatment (labeled PGG in vivo on FIG. 11).
# rat abdominal aorta = experiment: CaCl2 chemical injury aneurysm model on rat abdominal aorta; format: in vivo, Sprague-Dawley rats
# Text: In vivo use of the disclosed agents was examined. The aneurysm model used was based on the perivascular application of a high concentration calcium chloride (CaCl2) solution, a method originally used to induce aneurysms in rabbit carotid arteries (see, Gertz SD, Kurgan A, Eisenberg D. J Clin Invest 1988;81(3):649-656.) and has more recently been used on abdominal aorta of rodents. (See, e.g., Freestone T., et al., Arterioscler Thromb Vasc Biol 1995;15(8):1145-1151. Freestone T., et al., Arterioscler Thromb Vasc Biol 1997;17(1):10-17. Tambiah J., et al. Br J Surg 2001;88(7):935-940.) This model results in a localized mild insult to the arterial tissue. In most studies, a significant increase in aortic diameter (indicative of aneurysm formation) was observed after 3 to 6 weeks post-injury. For this example, the CaCl2-based chemical injury was performed on rat aorta.
# as §3, with “analysis.” for “analysis. Vessels were also analyzed to determine the long-term binding of the tannins with the tissue. Tannins were extracted from explanted aorta immediately after treatment (labeled PGG in situ on FIG. 11) and measured levels were compared to those obtained from aorta explanted 28 days following PGG treatment (labeled PGG in vivo on FIG. 11).”
# Following superficial examination of the aortic segments, the segments were analyzed via desmosine analysis for elastin content. […]
# pure aortic elastin = experiment: Kinetics of binding of tannic acid to pure aortic elastin; set-up: species or system porcine
# Procedure: Ascending porcine aorta was collected fresh at a slaughterhouse and transported to the laboratory on ice. After cleaning fat and adherent tissues, aorta was cut into 2×4 mm strips and thoroughly rinsed in cold saline. Aortic elastin was purified by a sequence of extractions. Specifically, aortic strips were suspended in 100 mM sodium hydroxide (60 strips in 100 mL) and incubated for 14 hours at 37° C. with collagenase (0.5 units/mg wet tissue) in 50 mM Tris buffer, 10 mM calcium chloride, pH 8.0. The collagenase preparation was pre-adsorbed with elastin fibers to remove residual elastolytic activities. The final digestion step completely removed residual collagen, leaving pure aortic elastin.
# The pure aortic elastin strips were placed in 2 mL microfuge tubes and suspended in 1.5 mL of an 8 mg % TA solution prepared in a 50 mM disodium hydrogen phosphate, 0.9% sodium chloride buffer, pH 5.5. A second group consisted of pure aortic elastin suspended in a solution containing 8 mg % TA and 16 mg % Glut in the same buffer. As controls, TA solution and the mixture of TA and Glut were incubated without elastin samples. Samples were incubated at room temperature and at defined time intervals (0, 20, 40, 60, 120, 360 minutes and 24 hours), samples were retrieved and analyzed for TA content in solution. Specifically, samples were mixed with a tungstate/phosphomolybdate reagent followed by addition of a saturated sodium carbonate solution and ddH2O. After 10 minutes at room temperature, OD at 760 nm was measured in a microplate spectrophotometer. Standard curves were constructed with TA in the range of 0-8 mg % and with TA (0-8 mg %) in mixtures with Glut (16 mg % ). Glut interference with the TA color reaction was minimal (no statistical differences found for all data points). Finally, the elastin strops were rinsed in ddH2O and lyophilized. The amount of TA bound to pure aortic elastin was calculated from the differences between initial TA concentration in solution and concentration of TA in solution after incubation with elastin strops and were expresses as micrograms of TA bound by 1 mg dry elastin. All samples were assayed in triplicate.
# elastase = experiment: Elastase digestion of treated porcine aorta (mass loss, elastin histology); format: biochemical
# Procedure: Fresh porcine aorta was cut into approximately 4 mm×4 mm squares and treated with 0.3% tannic acid (TA) (1.76 mM) in 50 mM HEPES […] buffered saline at pH 5.5 for 4 days at room temperature. A control sample was treated in mM Hepes buffered saline at pH5.5. Samples were then rinsed three times (1 hour each) in 100 mL ddH2O at room temperature and lyophilized to record dry weight. Samples (about 15-25 mg dry weight), both control and TA treated, were incubated with 1.0 mL pure elastase (20 units/ml, in 100 mM Tris, 1 mM CaCl2, 0.02% NaN3, pH 7.8 buffer) at 37° C. for 48 hours with orbital shaking at 650 rpm. Samples were then centrifuged (10000 rpm, 10 min. 4° C.) and supernatants retained to assess enzyme activity. Tissue samples were again rinsed three times (1 hour each) in 100 mL ddH2O at room temperature and lyophilized to record dry weight after elastase, and the percent of digested tissue was calculated. Elastin degradation was assessed by measuring mass loss (dry weight before and after elastase contact) and by preparation of histological slides stained with an elastin-specific stain (Voerhoff van Gieson stain).
smiles,measurement,setting,value
"CCO [EtOH, ethanol]",cell viability after exposure to extracts,Rat skin fibroblasts [1],essentially no viable cells
same,Viability (live/dead assay),"Rat skin fibroblasts [1]; 14 day tissue extract diluted 10-fold in media, 2 hours exposure",0%
same,Viability (MTS assay),"Rat skin fibroblasts [2]; 14 day tissue extract diluted 10-fold, 2 hours exposure, absorbance at 490 nm, n = 3",0.03
"O=CCCCC=O [Glut, glutaraldehyde]",cell viability after exposure to extracts,Rat skin fibroblasts [1],remained viable
same,Viability (live/dead assay),"Rat skin fibroblasts [1]; rat, 2 h",100%
same,Mean opening angle,porcine aorta [3],35.9 degrees
same,Viability (MTS assay),"Rat skin fibroblasts [2]; rat, 2 h",1.04
same,Mean Elastic Modulus,porcine aorta [4],1.28 kPa
"O=C(OC[C@H]1O[C@@H](OC(=O)c2cc(O)c(O)c(O)c2)[C@H](OC(=O)c2cc(O)c(O)c(O)c2)[C@@H](OC(=O)c2cc(O)c(O)c(O)c2)[C@@H]1OC(=O)c1cc(O)c(O)c(O)c1)c1cc(O)c(O)c(O)c1 [PGG, pentagalloylglucose]",level of tannins extracted from tissue,[5]; explanted 28 days following PGG treatment (PGG in vivo),about 1.3 μg PGG/mg dry tissue
same,level of tannins extracted from tissue,[5]; explanted immediately after treatment (PGG in situ),about 1.8 μg PGG/mg dry tissue
same,cytotoxicity comparison,Rat skin fibroblasts [2],less cytotoxic than TA
same,percentage change in diameter of aortic segments,"rat abdominal aorta; 0.03% PGG perivascular 15 minutes before CaCl2, 28 days",less than 10%
same,increase in diameter of aortic segments,"rat abdominal aorta; 0.03% PGG perivascular 15 minutes before CaCl2, 28 days, n=12 per group",about 100 μm
same,desmosine content (elastin content),rat abdominal aorta; aortic segments 28 days post-injury,about 1350 pmol desmosine/mg protein
"O=C(OC[C@H]1O[C@@H](OC(=O)c2cc(O)c(O)c(OC(=O)c3cc(O)c(O)c(O)c3)c2)[C@H](OC(=O)c2cc(O)c(O)c(OC(=O)c3cc(O)c(O)c(O)c3)c2)[C@@H](OC(=O)c2cc(O)c(O)c(OC(=O)c3cc(O)c(O)c(O)c3)c2)[C@@H]1OC(=O)c1cc(O)c(O)c(OC(=O)c2cc(O)c(O)c(O)c2)c1)c1cc(O)c(O)c(OC(=O)c2cc(O)c(O)c(O)c2)c1 [TA, tannic acid]","TA remaining in solution, of initial TA",pure aortic elastin; after 6 hours incubation with elastin,10%
same,"TA remaining in solution, of initial TA",pure aortic elastin; at 24 hours incubation with elastin,less than 3.5%
same,TA bound at leveling off,"pure aortic elastin; rapid binding within the first 6 hours, then plateau",about 3 mg of TA/mg dry elastin
same,decrease of amount of TA in solution,"pure aortic elastin; within 1 hour of incubation with elastin, 8 mg % TA, pH 5.5",about 50%
same,elastin fibers in histology (Voerhoff van Gieson stain) after elastase,elastase; 0.3% TA pre-treated aorta after elastase,fully preserved
same,mass lost after elastase (percent of digested tissue),"elastase; 0.3% TA pre-treatment 4 days pH 5.5, elastase 20 units/ml, 37° C., 48 hours, n=6",4-5% and 4.33%
